Patent US9701987B2, “Fermentation process for the production and control of pyruvate-derived products” (priority 2014, dated 2017)
Read-outs that look alike come from different tables or passages of the source.

Experiments:
[1] = reported in the art; cited from earlier work
[2] = tested on: Clostridium autoethanogenum
From the text: A fermentation was started using the general fermentation process with gas and agitation were increased to minimize acetate and maximize ethanol production. Dilution rate and bacterial dilution rate were adjusted by day 4.0 to 2.0 day-^1 and 1.2 day-1, respectively. These values were maintained for the remainder of the fermentation.
On day 14.1 the concentration of B1 in media was decreased to reduce the specific B1 feed rate with all other operational parameters being kept constant.
It has been reported in the art that the limiting concentration of B1 for growth and acetate production is 6.5 μg/g cell produced.

[3] = tested on: Clostridium autoethanogenum; assay: Example 5: fermentation with vitamin B7 concentration increased then reduced, effect on 2,3-BDO production; assay type: cell-based
Experimental: In this example the impact of B7 on the production of 2,3-BDO was tested using a fermentation grown according to the general fermentation process. […] Dilution rate and bacterial dilution rate were adjusted so that by day 8.0 these were 1.8 day^−1 and 0.75 day^−1 respectively. […] The results achieved at that time are summarised below;
On day 8.69 the concentration of B7 in media was increased 10 fold with all other operational parameters being kept constant. During this time the biomass production rate remained stable so the B7 feed rate was increased over tenfold to 980 μg/g cell produced. Following the increase in the B7 feed the specific 2,3-BDO production rate and the concentration of 2,3-BDO increased. The data obtained from days 13-14 are summarised below;
As the 2,3-BDO concentration was reaching a peak (day 14.04) the B7 in the media was reduced 10 fold such that the specific B7 feed rate was reduced back to 90 μg/g cell produced.
This is a surprising result as it is the specific 2,3-BDO production rate and the concentration of 2,3-BDO that increases rather than any other metabolite and or biomass.

[4] = tested on: Clostridium autoethanogenum; assay: Example 3: fermentation with excess vitamin B5 from the start, effect on 2,3-BDO production; assay type: cell-based
Experimental: The example above can be compared to results when excess B5 vitamin is present in the fermentation media throughout the fermentation. […] In this case the 2,3-BDO concentration reached 9 g/L with an ethanol:2,3-BDO ratio of 2:1 (FIG. 2), and a CO uptake of 9.4 mol/L/day (FIG. 3). The feed rate of B5 vitamin throughout the fermentation was >2000 μg/g-cell produced. During day 6.0 to 7.0 as the biomass and 2,3-BDO production flattened out the feed rate of B5 vitamin was 2011 μg/g-cell produced. The specific 2,3-BDO production rate was 1.2 g/day per g-biomass, the specific ethanol production rate was 2.4 g/day per g-biomass.

[5] = tested on: Clostridium autoethanogenum; assay: Example 1: fermentation with vitamin B5 concentration increased during the run, effect on 2,3-BDO production; assay type: cell-based
Experimental: This experiment was carried out according to the general fermentation process described above. […] Dilution rate and bacterial dilution rate were adjusted so that by day 5.0 these were 1.8 day^−1 and 0.85 day^−1, respectively.
On day 8.1 the concentration of vitamin B5 in media was increased 10 fold with all other operational parameters remaining the same. During this time the biomass production rate dropped slightly so accordingly the vitamin B5 feed rate was increased just over tenfold to 2180 μg/g-cell produced. Following the increase in the vitamin B5 concentration, the specific 2,3-BDO production rate and concentration increased with other parameters remaining stable.
This is a surprising result as it is only the specific 2,3-BDO production rate and the concentration of 2,3-BDO that increases while the production rate of other metabolites, e.g. ethanol and biomass remains the same.

Clostridium ljungdahlii = conditions: WO 2002/08438; cited from earlier work
[6] = vitamin B1 feed rate 303 μg/g cell produced, day 10.0-14.0
[7] = vitamin B1 feed rate decreased to 61 μg/g cell produced
[8] = vitamin B7 feed rate 90 μg/g cell produced, before increase
[9] = vitamin B7 feed rate 980 μg/g cell produced, days 13-14
[10] = vitamin B7 reduced back to 90 μg/g cell produced (after day 14.04)
[11] = B5 vitamin feed rate 2011 μg/g-cell produced, day 6.0 to 7.0
[12] = B5 vitamin feed rate >2000 μg/g-cell produced throughout the fermentation
[13] = vitamin B5 feed rate 198 μg/g-cell produced, day 6.0-8.0
[14] = vitamin B5 feed rate 2180 μg/g cell produced

In the case of `Cc1ncc(C[n+]2csc(CCO)c2C)c(N)n1.Cl.[Cl-]` [vitamin B1, Thiamine hydrocloride], the “limiting concentration of B1 for growth and acetate production” value [1] is given as 6.5 μg/g cell produced, the “effect of decreasing the B1 concentration on ethanol production” value ([2]; B1 feed rate 303 to 61 μg/g cell produced, CO uptake constant) is given as “unaffected” and the “2,3-BDO concentration” value [2, 6] is given as 3.4 g/L. It also gave a Biomass [2, 6] of 5.79 g/L, a CO uptake [2, 6] of 8.0 mol/L/day and an Ethanol concentration [2, 6] of 16.05 g/L. The “Specific 2,3-BDO production rate” value [2, 6] was 1.17 g 2,3-BDO/g biomass/day, the “Specific Ethanol production rate” value [2, 6] was 5.54 g ethanol/g biomass/day and the “2,3-BDO titre” value [2, 7] was 1.6 g/L. The Biomass [2, 7] was 6.75 g/L, the CO uptake [2, 7] was 8.0 mol/L/day and the Ethanol concentration [2, 7] was 18.23 g/L. The “Specific 2,3-BDO production rate” value [2, 7] was 0.47 g 2,3-BDO/g biomass/day and the “Specific Ethanol production rate” value [2, 7] was 5.4 g ethanol/g biomass/day.
With `O=C(O)CCCC[C@@H]1SC[C@@H]2NC(=O)N[C@@H]21` [vitamin B7, Biotin] the “impact of increasing B7 on the specific ethanol production rate” value ([3]; B7 feed rate 90 to 980 μg/g cell produced) was “does not impact”, the “2,3-BDO concentration” value [3, 8] was 4.94 g/L and the Acetate concentration [3, 8] was 8.13 g/L. It also gave a Biomass [3, 8] of 9.42 g/L, a CO uptake [3, 8] of 8.0 mol/L/day and an Ethanol concentration [3, 8] of 15.63 g/L. The “Specific 2,3-BDO production rate” value [3, 8] was 1.19 g 2,3-BDO/g biomass/day, the “Specific Ethanol production rate” value [3, 8] was 3.78 g ethanol/g biomass/day and the “2,3-BDO concentration” value [3, 9] was 7.34 g/L. The Biomass [3, 9] was 9.23 g/L, the CO uptake [3, 9] was 7.6 mol/L/day and the Ethanol concentration [3, 9] was 14.92 g/L. The “Specific 2,3-BDO production rate” value [3, 9] was 1.97 g 2,3-BDO/g biomass/day, the “Specific Ethanol production rate” value [3, 9] was 3.85 g ethanol/g biomass/day and the “2,3-BDO concentration” value [3, 10] was 4.76 g/L. For the same compound, the Biomass [3, 10] was 10.53 g/L, the CO uptake [3, 10] was 7.6 mol/L/day and the Ethanol concentration [3, 10] was 15.70 g/L. For the same compound, the “Specific 2,3-BDO production rate” value [3, 10] was 1.1 g 2,3-BDO/g biomass/day and the “Specific Ethanol production rate” value [3, 10] was 3.59 g ethanol/g biomass/day.
With `CC(C)(CO)[C@@H](O)C(=O)NCCC(=O)O` [vitamin B5, Pantothenic acid] the “Specific 2,3-BDO production rate” value [4, 11] was 1.2 g/day per g-biomass, the “Specific Ethanol production rate” value [4, 11] was 2.4 g/day per g-biomass and the “2,3-BDO concentration” value [4, 12] was 9 g/L. For the same compound, the CO uptake [4, 12] was 9.4 mol/L/day, the “2,3-BDO concentration” value [5, 13] was 4.8 g/L and the Acetate concentration [5, 13] was 7.75 g/L. The CO uptake [5, 13] was 8.4 mol/L/day, the Ethanol concentration [5, 13] was 18.69 g/L and the “Specific 2,3-BDO production rate” value [5, 13] was 0.81 g 2,3-BDO/g-biomass/day. The “Specific Ethanol production rate” value [5, 13] was 3.17 g ethanol/g-biomass/day, the Biomass ([5]; vitamin B5 feed rate 198 μg/g-cell produced, stable period day 6.0-8.0) was 10.62 g/L and the “2,3-BDO concentration” value [5, 14] was 7.0 g/L. For the same compound, the CO uptake [5, 14] was 8.0 mol/L/day, the Ethanol concentration [5, 14] was 19.49 g/L and the “Specific 2,3-BDO production rate” value [5, 14] was 1.32 g 2,3-BDO/g biomass/day. For the same compound, the “Specific Ethanol production rate” value [5, 14] was 3.3 g ethanol/g biomass/day, the Biomass ([5]; vitamin B5 feed rate 2180 μg/g cell produced, after 10 fold increase on day 8.1) was 10.4 g/L and the “vitamin B5 required for growth” value (Clostridium ljungdahlii) was 50 μg/g biomass produced.
